Experimental data from patent US10881649B2, “Therapeutic agent or preventive agent for alopecia areata” (Toray Industries, Inc., priority 2017, dated 2021).

Assays:
[1] = tested on: mouse alopecia areata model; assay: Symptom-suppressing effect on a mouse alopecia areata model (therapeutic protocol); format: in vivo, C3H/HeJ mice; settings: Day 91; 10 mg/kg orally once daily Day 49 to Day 90; n=6; vehicle group 9.2±0.83; Day 49 mean 3.6±0.66
Experimental: (§1) The effect of cyclic amine derivative (I) or a pharmacologically acceptable salt thereof in a mouse alopecia areata model was evaluated using increase in the hair loss score as an index of worsening of symptoms. The mouse alopecia areata model was prepared using the same method as in Example 73.
In other words, female C3H/HeJ mice (CLEA Japan, Inc.) with spontaneous hair loss in 70% or more of the body surface were used as donor mice. The donor mice were euthanized by cervical dislocation, and then the inguinal, axilla, and auricular lymph nodes were aseptically removed. The lymph nodes were filtered through a 70 μm cell strainer to isolate lymphocytes. The lymphocytes were washed with Advanced RPMI media (containing 10% fetal bovine serum, 2 mM Gluta Max, and 100 U/mL penicillin streptomycin), and then suspended in Advanced RPMI media to which Human rIL-2 (Roche; final concentration of 30 U/mL), Mouse rIL-7 (R&D systems, Inc.; final concentration of 25 ng/mL), and Mouse rIL-15 (R&D systems, Inc.; final concentration of 50 ng/mL) were added so that the concentration was 2×10^6 cells/mL. […]
On Day 49, grouping was performed using the mouse hair loss score calculated in the same manner as in Example 73 as an index (the hair loss score on Day 49 (mean±standard error): 3.6±0.66). […]
On Day 91, the mouse hair loss score was calculated in the same manner as in Example 73. […]

[2] = tested on: mouse alopecia areata model; assay: Symptom-suppressing effect on a mouse alopecia areata model (preventive protocol); format: in vivo, C3H/HeJ mice; settings: for hair loss score (mean±standard error): Day 63, 10 mg/kg orally once daily Day 0 to Day 62, n=10, vehicle group 3.2±1.13; for range of hair loss (FIG. 1): abdomen on Day 63, compared with the disease group (vehicle treatment group), 10 mg/kg orally once daily
Experimental: as §1, with “prepared by partially modifying” for “prepared using”, “the” for “the same”, “method by Wang et al. (Journal of Investigative Dermatology, 2015, Vol. 135, p. 2530-2532).” for “method as in Example 73.”
Female C3H/HeJ mice (CLEA Japan, Inc.) with spontaneous hair loss in 70% or more of the body surface were used as donor mice. The donor mice were euthanized by cervical dislocation, and then the inguinal, axilla, and auricular lymph nodes were aseptically removed. The lymph nodes were filtered through a 70 μm cell strainer to isolate lymphocytes. The lymphocytes were washed with Advanced RPMI media (containing 10% fetal bovine serum, 2 mM Gluta Max, and 100 U/mL penicillin streptomycin), and then suspended in Advanced RPMI media to which Human rIL-2 (Roche; final concentration of 30 U/mL), Mouse rIL-7 (R&D systems, Inc.; final concentration of 25 ng/mL), and Mouse rIL-15 (R&D systems, Inc.; final concentration of 50 ng/mL) were added so that the concentration was 2×10^6 cells/mL. The lymphocytes were seeded in 1 mL portions on 24-well plates, and 500 μL of Dynabead mouse T-activator CD3/CD28 (Life Technologies) was added, followed by culture in a CO2 incubator. Culture was performed for 6 days so that the cell density was 1.5 to 2.0×10^6 cells/mL during culture.
The day of transplantation of lymphocytes derived from donor mice was regarded as Day 0. Two days before the day of transplantation (Day −2), hair on the back, which would be a transplantation site, of 10-week old female C3H/HeJ mice without hair loss (CLEA Japan, Inc.) was removed with an electric hair clipper under isoflurane anesthesia (1.5 cm×1.5 cm). Furthermore, grouping was performed using the body weight on Day −1 as an index.
On Day 0, lymphocytes in which beads were removed with EasySep magnet (Stemcell Technologies Inc.) were collected into new tubes. The collected lymphocytes were suspended in PBS(−) so that the concentration was 10×10^7 cells/mL, filled in a 1 mL syringe with a 26G injection needle, and stored on ice until transplantation. Under isoflurane anesthesia, the filled lymphocyte suspension was intradermally injected into the hair removal site in 100 μL/body portions. […]
On Day 63, photographs of the back and the abdomen of the mice were taken under isoflurane anesthesia. The status of hair loss was evaluated by partially modifying the method by Alli et al. (Journal of Immunology, 2012, Vol. 188, p. 477-486). In other words, the ratio of the area of hair loss site to the body surface area was scored in accordance with the criteria mentioned in Table 4, and defined as the hair loss score. […]

Compound	hair loss score (mean±standard error) [1]	hair loss score (mean±standard error) [2]	range of hair loss (FIG. 1) [2]
O=C(Nc1ccc(-c2ccccc2OC(F)(F)F)c(Cl)c1)[C@H]1CCCCN1C(=O)Cn1cnnn1 [Compound of Example 57, (R)-1-(2-(1H-tetrazol-1-yl)acetyl)-N-(2-chloro-2′-(trifluoromethoxy)-[1,1′-biphenyl]-4-yl)piperidine-2-carboxamide]	5.5±1.43	1.8±0.88	very smaller
CN(CC(=O)N1CCCC[C@@H]1C(=O)Nc1ccc(-c2ccccc2OC(F)(F)F)c(Cl)c1)S(C)(=O)=O [Compound of Example 29, (R)—N-(2-chloro-2′-(trifluoromethoxy)-[1,1′-biphenyl]-4-yl)-1-(2-(N-methylmethylsulfonamide)acetyl)piperidine-2-carboxamide]	4.3±1.41	1.3±0.67	very smaller
